Data on 1 compound can be found in patent US20130317096A1, “SYNERGISTIC INTERACTION OF AT LEAST ONE VITAMIN E COMPONENT AND TYROSINASE INHIBITORS FOR DERMATOLOGICAL APPLICATIONS” (Davos Life Science Pte Ltd, priority 2010, published 2013).

The structures appear in SMILES notation. Entries after “also recorded” stand apart in the source; their conditions may differ.

What all share (type): cell-based, mouse
One assay relates to B16 melanoma cells. The assay can be described thus: MTT cell viability assay. The note with it: 24 hrs of treatment, increasing dosages. The protocol:
B16 mouse melanoma cells were purchased from (ATCC, Manassas, Va., USA).
The base medium for the cell line was Dulbecco's modified Eagle's medium (DMEM). To make the complete growth medium, fetal bovine serum (final concentration, 10%) was added to the base medium. Tocotrienol (T3) and tocopherol (TP) isomers and the palm tocotrienol-rich fraction (TRF) were purified from a palm fatty acid distillate (PFAD) using molecular distillation and Novasep® equipment (Novasep, Pompey, France). The extraction facility is located in Tuas, Singapore. The PFAD feed was purchased from Kuala Lumpur Kepong Berhad (Kuala Lumpur, Malaysia). The purity of the vitamin E isomers was verified by HPLC and gas chromatography (GC) percentage peak area.
For the cell viability study, 5×10^3 cells re-suspended in 100 μl of medium were plated into each well of a 96-well plate. The cells were then treated with different concentrations of the vitamin-E isomers for 24 hrs. After the treatment, 20 μl of MTT solution (1 mg/ml in PBS; Sigma-Aldrich, St. Louis, Mo., USA) was added to each well and the cells were incubated at 37° C. for 2 hrs. The formazan crystals were then re-suspended in 200 μl of DMSO and the intensity at 595 nm was measured.
(In general: Tetrazolium assays rely on reduction of a dye to a coloured formazan, in cell work by metabolically active cells.)

For assay [1], the system named is cleaved caspase 3 and PARP. As to the kind of experiment: Western blot of apoptotic molecules. The note with it: B16 melanoma cells. (In western blotting, separated proteins are transferred to a membrane and probed.)
In the next assay the test system is tyrosinase mRNA. As to the kind of experiment: Reverse transcriptase PCR of tyrosinase mRNA. The note with it: B16 melanoma cells. The source says:
Total RNA was isolated using Trizol reagent according to the manufacturer's protocol (Invitrogen, Carlsbad, Calif., USA). cDNA was synthesized using the SuperScript First Strand Synthesis System (Invitrogen, Carlsbad, Calif., USA) and was then amplified by PCR with tyrosinase-specific primers (forward primer, tyrosinase-S,5′-[…]-3′ [−2236/−2217] (SEQ ID NO: 1) and reverse primer, tyrosinase-AS,5′-[…]-3′ [+63/+42]) (SEQ ID NO: 2) and GAPDH specific primers: 5′ to 3′F […] (SEQ ID NO: 3); 5′ to 3′R […] (SEQ ID NO: 4). The PCR cycling protocol was as follows: 30 cycles for 10 min at 95° C., 30 sec at 95° C., 30 sec at 55° C., 1 min at 72° C., and 10 min at 72° C. Glyceraldehyde 3-phosphate dehydrogenase (GAPDH) was amplified as an internal control. The PCR products were electrophoresed on a 2% agarose gel and analyzed using a gel documentation system.

With `CC(C)=CCC/C(C)=C/CC/C(C)=C/CCC1(C)CCc2cc(O)c(C)c(C)c2O1` (centres unmarked) [γ-tocotrienol, 7,8-dimethyltocotrienol], the “B16 melanoma cell viability / proliferation rate” value in the assay with B16 melanoma cells is recorded as “inhibited the proliferation rate of B16 melanoma cells in a dose-dependent fashion; also recorded: inhibit B16 melanoma cell viability at high concentrations”. Further, the results for the “induction of apoptotic molecules (cleaved caspase 3 and PARP)” value in assay [1] and in assay [1] (listed as γ-T3) were “induced critical apoptotic molecules in a dose-dependent manner” and “induced cellular apoptosis”, respectively. Further, the “tyrosinase mRNA” value in the assay on tyrosinase mRNA was “No change of tyrosinase mRNA”; in the assay on tyrosinase mRNA (listed as γ-T3), “not affected”.
